Data published in patent publication US20230357269A1 (LES LABORATOIRES SERVIER, priority 2020, published 2023).

Target: human recombinant LRRK2 protein (Homo sapiens (Human), UniProt Q5S007)
Experiment: LRRK2 Kinase Activity Assay (ADP-Glo)
Format: biochemical
Settings: LRRK2 wt; LRRKtide peptide and ATP substrates; 1h-incubation at 37° C.
Procedure: LRRK2 Kinase reactions were carried out in 384-well white polystyrene plates in a final volume of 6 μl using ADP-Glo™ Kinase Assay kit (Promega Corp.). Compound and substrates (LRRKtide peptide and ATP) in assay buffer were first dispensed in wells. Kinase reaction was then started by the addition of human recombinant LRRK2 protein. After 1h-incubation at 37° C., the enzymatic reaction was stopped by the addition of 6 μl of ADP-Glo Reagent-1 and an additional 40-minutes incubation at 23° C. (residual ATP depletion). A final 30-minutes incubation after 12 μL reagent-2 addition (ADP to ATP conversion and luciferin/luciferase reaction) was performed before luminescent signal acquisition (EnVision™ multimode plate reader-PerkinElmer, Inc.). Data from 10 individual concentrations of tested compounds (N=2) were fitted (XLfit™-ID Business Solutions Ltd) to deliver IC50s (compound concentration leading to 50% inhibition of reference enzymatic activity).
The compounds are dissolved to 5 mM in DMSO. When needed, solutions are sonicated in a bath sonicator.
Table 2 provides the IC50 values of the compounds according to the invention, obtained using the above-mentioned kinase assay. Activities are represented as +++, ++ and +, having the following meanings: • +++ means IC50<10 nM • ++ means 10 nM≤IC50<100 nM • + means 100 nM≤IC50<1 μM.

Chain of human recombinant LRRK2 protein (Q5S007 whole entry): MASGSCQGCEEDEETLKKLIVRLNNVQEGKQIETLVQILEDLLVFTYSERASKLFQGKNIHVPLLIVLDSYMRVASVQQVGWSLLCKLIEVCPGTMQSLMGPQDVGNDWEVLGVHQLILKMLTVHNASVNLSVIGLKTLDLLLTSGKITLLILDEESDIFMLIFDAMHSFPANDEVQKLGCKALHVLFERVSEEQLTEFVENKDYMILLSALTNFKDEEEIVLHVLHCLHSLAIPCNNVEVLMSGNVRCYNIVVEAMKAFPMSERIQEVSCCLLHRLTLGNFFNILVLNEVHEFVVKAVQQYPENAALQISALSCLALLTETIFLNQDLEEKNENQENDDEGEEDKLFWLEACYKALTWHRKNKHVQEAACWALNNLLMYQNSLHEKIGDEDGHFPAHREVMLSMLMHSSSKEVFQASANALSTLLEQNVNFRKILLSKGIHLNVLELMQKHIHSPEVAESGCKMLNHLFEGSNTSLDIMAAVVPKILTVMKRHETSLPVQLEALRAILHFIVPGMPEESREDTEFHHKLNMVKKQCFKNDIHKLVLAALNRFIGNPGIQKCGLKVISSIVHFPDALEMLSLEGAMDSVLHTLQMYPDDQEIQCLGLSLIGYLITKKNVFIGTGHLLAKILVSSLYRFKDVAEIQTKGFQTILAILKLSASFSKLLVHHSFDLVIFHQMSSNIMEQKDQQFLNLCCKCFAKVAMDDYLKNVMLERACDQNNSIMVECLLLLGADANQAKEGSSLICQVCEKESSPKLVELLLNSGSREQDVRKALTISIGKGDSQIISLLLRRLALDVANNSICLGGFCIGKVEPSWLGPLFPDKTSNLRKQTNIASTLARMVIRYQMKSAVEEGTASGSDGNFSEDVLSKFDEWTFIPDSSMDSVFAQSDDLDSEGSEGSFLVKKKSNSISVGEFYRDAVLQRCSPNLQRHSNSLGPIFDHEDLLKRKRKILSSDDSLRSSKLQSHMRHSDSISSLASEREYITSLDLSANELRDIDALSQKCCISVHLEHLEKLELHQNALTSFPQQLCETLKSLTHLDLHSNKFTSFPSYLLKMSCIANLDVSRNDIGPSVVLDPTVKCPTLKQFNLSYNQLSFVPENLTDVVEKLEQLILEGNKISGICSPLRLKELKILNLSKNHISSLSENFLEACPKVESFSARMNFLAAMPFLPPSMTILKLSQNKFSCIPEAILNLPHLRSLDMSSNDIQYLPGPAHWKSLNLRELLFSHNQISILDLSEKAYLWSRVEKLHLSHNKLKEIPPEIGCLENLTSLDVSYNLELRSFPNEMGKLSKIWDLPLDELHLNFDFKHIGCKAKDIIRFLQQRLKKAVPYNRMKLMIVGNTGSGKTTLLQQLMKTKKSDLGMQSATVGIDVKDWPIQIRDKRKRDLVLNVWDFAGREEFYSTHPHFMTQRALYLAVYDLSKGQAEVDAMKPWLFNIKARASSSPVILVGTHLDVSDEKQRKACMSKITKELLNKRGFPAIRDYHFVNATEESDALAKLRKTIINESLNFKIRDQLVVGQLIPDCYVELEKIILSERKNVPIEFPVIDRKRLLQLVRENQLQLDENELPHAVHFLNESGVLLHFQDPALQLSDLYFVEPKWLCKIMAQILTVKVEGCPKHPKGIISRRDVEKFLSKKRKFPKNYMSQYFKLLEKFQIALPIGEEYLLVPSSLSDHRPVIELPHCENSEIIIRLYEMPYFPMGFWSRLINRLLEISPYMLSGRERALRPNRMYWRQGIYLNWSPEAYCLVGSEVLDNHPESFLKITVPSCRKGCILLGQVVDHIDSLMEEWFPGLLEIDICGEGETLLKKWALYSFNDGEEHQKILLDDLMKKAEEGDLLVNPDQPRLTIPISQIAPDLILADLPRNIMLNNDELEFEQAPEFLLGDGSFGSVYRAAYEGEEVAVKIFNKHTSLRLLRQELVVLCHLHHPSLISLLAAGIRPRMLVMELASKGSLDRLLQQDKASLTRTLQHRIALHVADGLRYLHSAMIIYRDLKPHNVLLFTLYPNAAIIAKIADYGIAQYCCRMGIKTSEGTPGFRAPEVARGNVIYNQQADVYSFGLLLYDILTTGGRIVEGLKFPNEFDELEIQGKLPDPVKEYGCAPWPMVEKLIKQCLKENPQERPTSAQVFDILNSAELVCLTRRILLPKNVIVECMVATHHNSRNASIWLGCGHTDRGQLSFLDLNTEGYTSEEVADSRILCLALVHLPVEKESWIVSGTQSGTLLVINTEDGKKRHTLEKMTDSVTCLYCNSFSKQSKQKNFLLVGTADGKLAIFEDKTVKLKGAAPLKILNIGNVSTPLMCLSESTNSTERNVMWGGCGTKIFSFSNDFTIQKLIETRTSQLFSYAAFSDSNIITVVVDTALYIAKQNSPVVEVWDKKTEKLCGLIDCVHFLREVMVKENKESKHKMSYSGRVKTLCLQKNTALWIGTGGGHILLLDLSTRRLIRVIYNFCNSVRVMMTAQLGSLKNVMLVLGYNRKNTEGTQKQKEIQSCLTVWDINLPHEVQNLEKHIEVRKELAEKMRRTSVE

| IC50 [nM] | Structure (SMILES) |
| --- | --- |
| < 10 | COc1cc2cc(c1F)C(C)OC(=O)NCCCOc1ccc3[nH]nc-2c3c1 (stereo not shown) [Example 95, 5-fluoro-4-methoxy-7-methyl-8,14-dioxa-10,19,20-triazatetracyclo[13.5.2.1^2,6.0^18,21]tricosa-1(20),2(23),3,5,15(22),16,18(21)-heptaen-9-one] |
| < 10 | CC1CCNC(=O)OCc2cc(F)cc(c2)-c2n[nH]c3ccc(cc23)O1 (stereo not shown) [Example 71, 4-fluoro-13-methyl-8,14-dioxa-10,19,20-triazatetracyclo[13.5.2.1^2,6.0^18,21]tricosa-1(20),2,4,6(23),15,17,21-heptaen-9-one] |
| 10 to 100 | C[C@@H]1CCNC(=O)O[C@@H](C)c2cncc(n2)-c2n[nH]c3ccc(cc23)O1 [Example 154, (7S,13R)-7,13-dimethyl-8,14-dioxa-4,10,19,20,23-pentaazatetracyclo[13.5.2.1^2,6.0^18,21]tricosa-1(20),2(23),3,5,15(22),16,18(21)-heptaen-9-one] |
| < 10 | O=C1NC[C@H](F)COc2ccc3[nH]nc(c3c2)-c2cncc(n2)CO1 [Example 171, (12S)-12-fluoro-8,14-dioxa-4,10,19,20,23-pentaazatetracyclo[13.5.2.1^2,6.0^18,21]tricosa-1(20),2(23),3,5,15,17,21-heptaen-9-one] |
| < 10 | COc1cc2nc(c1)-c1n[nH]c3ccc(cc13)O[C@H](C)CCNC(=O)OC2 [Example 127, (13R)-4-methoxy-13-methyl-8,14-dioxa-10,19,20,23-tetraazatetracyclo[13.5.2.1^2,6.0^18,21]tricosa-1(20),2,4,6(23),15,17,21-heptaen-9-one] |
| < 10 | C[C@H]1OC(=O)NCCCOc2ccc3[nH]nc(c3c2)-c2cccc1c2 [Example 68, (7R)-7-methyl-8,14-dioxa-10,19,20-triazatetracyclo[13.5.2.1^2,6.0^18,21]tricosa-1(20),2(23),3,5,15(22),16,18(21)-heptaen-9-one] |
| 10 to 100 | CC1OC(=O)NCC[C@@H](C)Oc2ccc3[nH]nc(c3c2)-c2ccnc1n2 (single isomer, unassigned) [Example 130, (7R,13R)- or (7S,13R)-7,13-dimethyl-8,14-dioxa-5,10,19,20,23-penta azatetracyclo[13.5.2.1^2,6.0^18,21]tricosa-1(20),2,4,6(23),15,17,21-heptaen-9-one] |
| < 10 | CCc1cc2nn1CCOC(=O)NCCCOc1ccc3[nH]nc-2c3c1 [Example 122, 4-ethyl-8,14-dioxa-5,10,19,20,23-pentaazatetracyclo[13.5.2.1^2,5.0^18,21]tricosa-1(20),2(23),3,15,17,21-hexaen-9-one] |
| < 10 | O=C1NCC(F)(F)COc2ccc3[nH]nc(c3c2)-c2cnn(n2)CCO1 [Example 167, 12,12-difluoro-8,14-dioxa-4,5,10,19,20,23-hexaazatetracyclo[13.5.2.1^2,5.0^18,21]tricosa-1(20),2(23),3,15(22),16,18(21)-hexaen-9-one] |
| < 10 | Cc1cc2nc(n1)COC(=O)NCC[C@@H](C)Oc1ccc3[nH]nc-2c3c1 [Example 148, (13R)-4,13-dimethyl-8,14-dioxa-5,10,19,20,23-pentaazatetracyclo[13.5.2. 1^2,6.0^18,21]tricosa-1(20),2(23),3,5,15(22),16,18(21)-heptaen-9-one] |
| < 10 | C[C@@H]1CCNC(=O)OCc2cc(ccn2)-c2n[nH]c3ccc(cc23)O1 [Example 117, (13R)-13-methyl-8,14-dioxa-5,10,19,20-tetraazatetracyclo[13.5.2.1^2,6.0^18,21]tricosa-1(20),2,4,6(23),15,17,21-heptaen-9-one] |
| < 10 | COCCc1cc2cc(c1)-c1n[nH]c3ccc(cc13)OCCCNC(=O)OC2 [Example 67, 4-(2-methoxyethyl)-8,14-dioxa-10,19,20-triazatetracyclo[13.5.2.1^2,6.0^18,21]tricosa-1(20),2(23),3,5,15(22),16,18(21)-heptaen-9-one] |
| < 10 | C[C@@H]1CCNC(=O)O[C@H](C)c2cccc(c2)-c2n[nH]c3ccc(cc23)O1 [Example 96, (7R,13R)-7,13-dimethyl-8,14-dioxa-10,19,20-triazatetracyclo[13.5.2.1^2,6.0^18,21]tricosa-1(20),2(23),3,5,15(22),16,18(21)-heptaen-9-one] |
| < 10 | C[C@H]1OC(=O)NCCCOc2ccc3[nH]nc(c3c2)-c2cc(F)cc1c2 (single isomer, unassigned) [Example 109, (7R)- or (7S)-4-fluoro-7-methyl-8,14-dioxa-10,19,20-triazatetracyclo[13.5.2.1^2,6.0^18,21]tricosa-1(20),2,4,6(23),15,17,21-heptaen-9-one] |
| < 10 | O=C1NCCCOc2ccc3[nH]nc(c3c2)-c2cc(cc(N3CCOCC3=O)c2)CO1 [Example 73, 4-(3-oxomorpholin-4-yl)-8,14-dioxa-10,19,20-triazatetracyclo[13.5.2. 1^2,6.0^18,21]tricosa-1(20),2(23),3,5,15(22),16,18(21)-heptaen-9-one] |
| 10 to 100 | C[C@@H]1CCNC(=O)OCCc2nc(cn2C)-c2n[nH]c3ccc(cc23)O1 [Example 161, (13R)-4,13-dimethyl-8,14-dioxa-4,10,19,20,23-pentaazatetracyclo[13.5.2.1^2,5.0^18,21]tricosa-1(20),2,5(23),15(22),16,18(21)-hexaen-9-one] |

Continued, compound first:

| Structure (SMILES) | IC50 [nM] |
| --- | --- |
| Cn1ccc(-c2cc3cc(c2)-c2n[nH]c4ccc(cc24)OCCCNC(=O)OC3)n1 [Example 64, 4-(1-methyl-1H-pyrazol-3-yl)-8,14-dioxa-10,19,20-triazatetracyclo[13.5.2.1^2,6.0^18,21]tricosa-1(20),2(23),3,5,15(22),16,18(21)-heptaen-9-one] | < 10 |
| O=C1NCCCOc2ccc3[nH]nc(c3c2)-c2cc(cc(C3=CCOC3)c2)CO1 [Example 37, 4-(2,5-dihydrofuran-3-yl)-8,14-dioxa-10,19,20-triazatetracyclo[13.5.2.1^2,6.0^18,21]tricosa-1(20),2,4,6(23),15,17,21-heptaen-9-one] | < 10 |
| O=C1NCCCOc2ccc3[nH]nc(c3c2)-c2cc(cc(N3CC[C@H](O)C3)c2)CO1 [Example 59, 4-[(3S)-3-hydroxypyrrolidin-1-yl]-8,14-dioxa-10,19,20-triazatetracyclo[13.5.2.1^2,6.0^18,21]tricosa-1(20),2,4,6(23),15,17,21-heptaen-9-one] | < 10 |
| O=C1NCCOc2ccc3[nH]nc(c3c2)-c2cccc(c2)CCO1 [Example 24, 9,14-dioxa-11,19,20-triazatetracyclo[13.5.2.1^2,6.0^18,21]tricosa-1(20),2,4, 6(23),15,17,21-heptaen-10-one] | 10 to 100 |
| O=C1NCCCOc2ccc3[nH]nc(c3c2)-c2cc(cc(N3CCCCC3)c2)CO1 [Example 36, 4-(piperidin-1-yl)-8,14-dioxa-10,19,20-triazatetracyclo[13.5.2.1^2,6.0^18,21]tricosa-1(20),2,4,6(23),15,17,21-heptaen-9-one] | < 10 |
| C[C@@H]1CN(c2cc3cc(c2)-c2n[nH]c4ccc(cc24)OCCCNC(=O)OC3)C[C@H](C)O1 [Example 17, 4-[(2R,6S)-2,6-dimethylmorpholin-4-yl]-8,14-dioxa-10,19,20-triazatetra cyclo[13.5.2.1^2,6.0^18,21]tricosa-1(20),2,4,6(23),15,17,21-heptaen-9-one] | < 10 |
| COCCN(C)c1cc2cc(c1)-c1n[nH]c3ccc(cc13)OCCCNC(=O)OC2 [Example 26, 4-[(2-methoxyethyl)(methyl)amino]-8,14-dioxa-10,19,20-triazatetracyclo[13.5.2.1^2,6.0^18,21]tricosa-1(20),2,4,6(23),15,17,21-heptaen-9-one] | < 10 |
| O=C1NCCCOc2ccc3[nH]nc(c3c2)-c2cc(cc(OCCN3CCOCC3)c2)CO1 [Example 66, 4-[2-(morpholin-4-yl)ethoxy]-8,14-dioxa-10,19,20-triazatetracyclo[13.5.2.1^2,6.0^18,21]tricosa-1(20),2(23),3,5,15(22),16,18(21)-heptaen-9-one] | < 10 |
| C[C@@H]1OC(=O)NCCCOc2ccc3[nH]nc(c3c2)-c2cccc1c2 [Example 65, (7S)-7-methyl-8,14-dioxa-10,19,20-triazatetracyclo[13.5.2.1^2,6.0^18,21]tricosa-1(20),2(23),3,5,15(22),16,18(21)-heptaen-9-one] | 10 to 100 |
| O=C1NCCCOc2ccc3[nH]nc(c3c2)-c2cc(cc(C3CCOC3)c2)CO1 (stereo not shown) [Example 61, 4-(oxolan-3-yl)-8,14-dioxa-10,19,20-triazatetracyclo[13.5.2.1^2,6.0^18,21]tricosa-1(20),2,4,6(23),15,17,21-heptaen-9-one] | < 10 |
| O=C1NCCCOc2ccc3[nH]nc(c3c2)-c2cccc(n2)CO1 [Example 4, 8,14-dioxa-10,19,20,23-tetraazatetracyclo[13.5.2.1^2,6.0^18,21]tricosa-1(20),2,4, 6(23),15,17,21-heptaen-9-one] | < 10 |
| CN1CCCOc2ccc3[nH]nc(c3c2)-c2cncc(c2)COC1=O [Example 2, 10-methyl-8,14-dioxa-4,10,19,20-tetraazatetracyclo[13.5.2.1^2,6.0^18,21]tricosa-1(20),2,4,6(23),15,17,21-heptaen-9-one] | 10 to 100 |
